Reference: doi:10.1101/2023.03.24.534094v2 (biorxiv, 2023)
Read-outs that look alike come from different tables or passages of the source. Values belong to the compound of their own block, whether it stands above or below them.

How the values were obtained:
Assay in all cases: biochemical
CLK1 = CLK1 (Homo sapiens, UniProt P49759)
Erk2 = Erk2 (Homo sapiens, UniProt P28482)
TTK = biological target: T1, TTK (Homo sapiens, UniProt P33981)
T1 sequence (P33981 1-857): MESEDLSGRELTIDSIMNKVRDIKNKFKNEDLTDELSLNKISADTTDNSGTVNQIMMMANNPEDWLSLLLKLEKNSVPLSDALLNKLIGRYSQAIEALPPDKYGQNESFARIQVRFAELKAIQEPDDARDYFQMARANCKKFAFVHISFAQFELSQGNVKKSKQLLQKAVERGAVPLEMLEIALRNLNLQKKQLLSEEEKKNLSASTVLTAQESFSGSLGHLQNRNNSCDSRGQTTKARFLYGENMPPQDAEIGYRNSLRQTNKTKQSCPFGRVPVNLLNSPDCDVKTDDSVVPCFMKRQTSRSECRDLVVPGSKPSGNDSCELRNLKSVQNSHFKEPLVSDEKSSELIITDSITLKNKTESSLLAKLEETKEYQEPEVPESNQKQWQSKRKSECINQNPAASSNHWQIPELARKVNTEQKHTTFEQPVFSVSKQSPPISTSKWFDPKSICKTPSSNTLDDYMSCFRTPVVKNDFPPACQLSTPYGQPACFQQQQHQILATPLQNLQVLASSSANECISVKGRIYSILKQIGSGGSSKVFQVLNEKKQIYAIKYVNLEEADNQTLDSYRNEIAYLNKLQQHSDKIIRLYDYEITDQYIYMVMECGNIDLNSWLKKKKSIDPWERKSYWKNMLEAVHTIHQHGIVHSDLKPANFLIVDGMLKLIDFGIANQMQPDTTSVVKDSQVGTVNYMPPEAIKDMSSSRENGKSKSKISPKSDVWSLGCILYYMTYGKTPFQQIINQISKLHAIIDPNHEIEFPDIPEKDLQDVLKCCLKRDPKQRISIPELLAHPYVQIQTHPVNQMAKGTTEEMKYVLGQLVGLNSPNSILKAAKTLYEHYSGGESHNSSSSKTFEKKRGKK

AAK1 = AAK1 (Homo sapiens, UniProt Q2M2I8)
NQO2A = biological target: T2, NQO2A (Homo sapiens, UniProt P16083)
T2 sequence (P16083 1-231): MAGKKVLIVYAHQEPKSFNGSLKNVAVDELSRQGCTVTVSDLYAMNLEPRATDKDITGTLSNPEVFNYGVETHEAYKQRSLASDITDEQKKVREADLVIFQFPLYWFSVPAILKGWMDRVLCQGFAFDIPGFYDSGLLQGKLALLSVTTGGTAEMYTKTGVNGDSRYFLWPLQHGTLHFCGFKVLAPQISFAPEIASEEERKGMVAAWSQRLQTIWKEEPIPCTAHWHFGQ

CK1d = CK1d (Homo sapiens, UniProt P48730)
CASK = biological target: T3, CASK (Homo sapiens, UniProt O14936)
T3 sequence (O14936 1-926): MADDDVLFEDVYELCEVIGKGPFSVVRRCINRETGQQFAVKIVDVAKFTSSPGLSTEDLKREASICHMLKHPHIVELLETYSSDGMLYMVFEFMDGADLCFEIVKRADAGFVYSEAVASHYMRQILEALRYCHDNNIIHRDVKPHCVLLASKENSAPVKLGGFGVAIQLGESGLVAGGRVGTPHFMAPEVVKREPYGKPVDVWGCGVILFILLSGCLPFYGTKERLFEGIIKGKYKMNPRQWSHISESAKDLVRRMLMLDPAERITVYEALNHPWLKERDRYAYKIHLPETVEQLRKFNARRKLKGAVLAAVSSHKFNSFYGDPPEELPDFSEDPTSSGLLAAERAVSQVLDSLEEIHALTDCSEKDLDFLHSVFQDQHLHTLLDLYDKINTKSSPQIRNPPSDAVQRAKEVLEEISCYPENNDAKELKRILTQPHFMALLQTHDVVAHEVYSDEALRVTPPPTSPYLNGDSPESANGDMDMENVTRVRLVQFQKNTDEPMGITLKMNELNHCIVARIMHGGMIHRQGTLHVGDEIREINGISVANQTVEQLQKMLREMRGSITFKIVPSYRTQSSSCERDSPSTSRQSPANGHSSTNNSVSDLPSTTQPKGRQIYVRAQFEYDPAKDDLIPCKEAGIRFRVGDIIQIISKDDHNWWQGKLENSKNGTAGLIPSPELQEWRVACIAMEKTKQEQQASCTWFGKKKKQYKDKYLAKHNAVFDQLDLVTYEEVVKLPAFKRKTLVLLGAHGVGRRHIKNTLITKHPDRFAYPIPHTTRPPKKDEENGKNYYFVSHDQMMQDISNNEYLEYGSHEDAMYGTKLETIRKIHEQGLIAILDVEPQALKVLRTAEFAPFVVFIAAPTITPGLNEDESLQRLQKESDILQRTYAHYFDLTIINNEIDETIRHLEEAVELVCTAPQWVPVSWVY

AurA = biological target: T4, AurA (Homo sapiens, UniProt O14965)
T4 sequence (O14965 1-403): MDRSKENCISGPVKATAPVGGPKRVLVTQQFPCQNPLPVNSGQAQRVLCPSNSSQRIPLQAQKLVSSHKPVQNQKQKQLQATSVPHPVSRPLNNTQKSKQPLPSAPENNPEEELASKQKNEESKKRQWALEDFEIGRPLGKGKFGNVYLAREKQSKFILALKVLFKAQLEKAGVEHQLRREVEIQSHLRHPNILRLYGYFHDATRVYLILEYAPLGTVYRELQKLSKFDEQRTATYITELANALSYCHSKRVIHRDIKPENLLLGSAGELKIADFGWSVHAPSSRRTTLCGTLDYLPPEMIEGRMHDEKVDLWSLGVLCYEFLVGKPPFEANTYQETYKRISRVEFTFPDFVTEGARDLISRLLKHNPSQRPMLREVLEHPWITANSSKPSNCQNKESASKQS

Chain of AAK1 (Q2M2I8 whole entry): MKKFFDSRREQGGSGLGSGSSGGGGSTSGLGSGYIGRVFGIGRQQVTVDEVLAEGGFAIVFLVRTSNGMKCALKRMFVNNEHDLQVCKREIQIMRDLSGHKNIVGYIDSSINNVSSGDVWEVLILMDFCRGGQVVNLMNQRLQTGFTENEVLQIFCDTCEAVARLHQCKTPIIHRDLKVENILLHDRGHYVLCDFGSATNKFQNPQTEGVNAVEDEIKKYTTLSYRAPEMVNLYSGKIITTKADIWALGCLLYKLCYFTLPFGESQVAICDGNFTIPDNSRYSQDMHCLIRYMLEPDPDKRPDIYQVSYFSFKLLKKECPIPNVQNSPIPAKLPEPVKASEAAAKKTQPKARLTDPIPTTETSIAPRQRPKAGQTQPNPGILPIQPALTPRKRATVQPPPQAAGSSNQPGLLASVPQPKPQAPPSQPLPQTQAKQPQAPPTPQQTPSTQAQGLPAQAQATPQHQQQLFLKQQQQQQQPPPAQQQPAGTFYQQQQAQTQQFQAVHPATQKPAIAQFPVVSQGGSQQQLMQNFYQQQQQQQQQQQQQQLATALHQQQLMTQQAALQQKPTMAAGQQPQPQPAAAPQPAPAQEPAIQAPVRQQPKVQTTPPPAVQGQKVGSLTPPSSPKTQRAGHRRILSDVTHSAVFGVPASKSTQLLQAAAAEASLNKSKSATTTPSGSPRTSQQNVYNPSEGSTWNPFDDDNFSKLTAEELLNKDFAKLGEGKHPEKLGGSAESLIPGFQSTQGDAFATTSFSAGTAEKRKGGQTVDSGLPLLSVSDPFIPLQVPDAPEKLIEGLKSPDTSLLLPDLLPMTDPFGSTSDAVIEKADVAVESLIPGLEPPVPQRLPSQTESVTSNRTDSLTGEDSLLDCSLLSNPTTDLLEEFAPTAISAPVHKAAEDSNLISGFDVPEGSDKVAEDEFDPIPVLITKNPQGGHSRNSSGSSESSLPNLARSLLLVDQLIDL
Chain of CK1d (P48730 whole entry): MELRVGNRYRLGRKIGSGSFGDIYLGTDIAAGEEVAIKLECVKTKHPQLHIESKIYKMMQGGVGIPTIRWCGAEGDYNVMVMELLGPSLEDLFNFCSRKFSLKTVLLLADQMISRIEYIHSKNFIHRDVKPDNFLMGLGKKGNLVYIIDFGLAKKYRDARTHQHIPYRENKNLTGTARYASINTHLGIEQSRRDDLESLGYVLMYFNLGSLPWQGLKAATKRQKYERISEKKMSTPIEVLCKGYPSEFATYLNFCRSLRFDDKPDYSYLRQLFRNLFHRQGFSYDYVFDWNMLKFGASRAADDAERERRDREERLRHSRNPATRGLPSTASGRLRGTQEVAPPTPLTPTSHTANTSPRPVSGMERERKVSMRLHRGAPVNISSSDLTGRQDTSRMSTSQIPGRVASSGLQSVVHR
Chain of CLK1 (P49759 whole entry): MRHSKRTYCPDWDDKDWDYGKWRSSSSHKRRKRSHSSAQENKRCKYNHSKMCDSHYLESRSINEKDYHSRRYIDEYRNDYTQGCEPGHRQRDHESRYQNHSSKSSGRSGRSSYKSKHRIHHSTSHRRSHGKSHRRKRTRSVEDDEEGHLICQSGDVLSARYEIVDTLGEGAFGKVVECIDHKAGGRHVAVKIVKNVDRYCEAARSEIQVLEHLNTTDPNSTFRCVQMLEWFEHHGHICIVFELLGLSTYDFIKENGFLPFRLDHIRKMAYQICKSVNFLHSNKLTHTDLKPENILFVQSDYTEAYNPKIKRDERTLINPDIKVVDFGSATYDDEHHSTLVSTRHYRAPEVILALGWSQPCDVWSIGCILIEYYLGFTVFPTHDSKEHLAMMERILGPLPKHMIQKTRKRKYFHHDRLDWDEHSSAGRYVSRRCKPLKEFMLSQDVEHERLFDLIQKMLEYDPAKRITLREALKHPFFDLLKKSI
Chain of Erk2 (P28482 whole entry): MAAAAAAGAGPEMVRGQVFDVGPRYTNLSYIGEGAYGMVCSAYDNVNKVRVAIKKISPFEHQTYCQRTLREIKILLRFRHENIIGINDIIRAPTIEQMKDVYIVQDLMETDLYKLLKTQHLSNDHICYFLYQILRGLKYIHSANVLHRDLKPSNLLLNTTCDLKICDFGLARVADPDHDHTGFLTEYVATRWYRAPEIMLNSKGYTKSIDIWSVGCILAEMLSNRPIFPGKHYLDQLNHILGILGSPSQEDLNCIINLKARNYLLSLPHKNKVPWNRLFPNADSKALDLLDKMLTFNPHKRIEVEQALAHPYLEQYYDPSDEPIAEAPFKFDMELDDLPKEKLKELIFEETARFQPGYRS

ΔTm at 10 µM (CLK1; read-out: dTm 12): -0.1 °C
ΔTm at 10 µM (Erk2; read-out: dTm 12): -1.8 °C
ΔTm at 10 µM (TTK; read-out: dTm 12): -0.7 °C
ΔTm at 10 µM (AAK1; read-out: dTm 12): 0.5 °C
ΔTm at 10 µM (NQO2A; read-out: dTm 12): 0.2 °C
ΔTm at 10 µM (CK1d; read-out: dTm 12): 0.6 °C
ΔTm at 10 µM (CASK; read-out: dTm 12): -0.2 °C
ΔTm at 10 µM (AurA; read-out: dTm 12): -2.4 °C
Compound: CNc1ncc2cc(-c3cc(F)c(-c4cccc(C)n4)cc3F)c(=O)n(CCCCN)c2n1 [compound 12, 8-(4-Aminobutyl)-6-(2,5-difluoro-4-(6-methylpyridin-2-yl)phenyl)-2-(methylamino)pyrido[2,3-d]pyrimidin-7(8H)-one]

ΔTm at 10 µM (CLK1; read-out: dTm 10): 0.4 °C
ΔTm at 10 µM (Erk2; read-out: dTm 10): 0.1 °C
ΔTm at 10 µM (TTK; read-out: dTm 10): 0.5 °C
ΔTm at 10 µM (AAK1; read-out: dTm 10): 0.5 °C
ΔTm at 10 µM (NQO2A; read-out: dTm 10): 0.6 °C
ΔTm at 10 µM (CK1d; read-out: dTm 10): 0 °C
ΔTm at 10 µM (CASK; read-out: dTm 10): 0 °C
ΔTm at 10 µM (AurA; read-out: dTm 10): 2 °C
Compound: CNc1ncc2cc(-c3cc(Cl)ccc3Br)c(=O)n(CCCCN)c2n1 [compound 10, 8-(4-Aminobutyl)-6-(2-bromo-5-chlorophenyl)-2-(methylamino)pyrido[2,3-d]pyrimidin-7(8H)-one]

Further lines, the compound ahead of its results:

Compound: CNc1ncc2cc(-c3cc(C(F)(F)F)ccc3Cl)c(=O)n(CCCCN)c2n1 [compound 9, 8-(4-Aminobutyl)-6-(2-chloro-5-(trifluoromethyl)phenyl)-2-(methylamino)pyrido[2,3-d]pyrimidin-7(8H)-one]
ΔTm at 10 µM (CLK1; read-out: dTm 9): 0.4 °C
ΔTm at 10 µM (Erk2; read-out: dTm 9): 0 °C
ΔTm at 10 µM (TTK; read-out: dTm 9): -0.5 °C
ΔTm at 10 µM (AAK1; read-out: dTm 9): 0 °C
ΔTm at 10 µM (NQO2A; read-out: dTm 9): -0.3 °C
ΔTm at 10 µM (CK1d; read-out: dTm 9): 0 °C
ΔTm at 10 µM (CASK; read-out: dTm 9): -0.1 °C
ΔTm at 10 µM (AurA; read-out: dTm 9): 1.3 °C

Compound: CNc1ncc2cc(-c3cc(Cl)ccc3Cl)c(=O)n(CCCCN)c2n1 [compound 8, 8-(4-Aminobutyl)-6-(2,5-dichlorophenyl)-2-(methylamino)pyrido[2,3-d]pyrimidin-7(8H)-one]
ΔTm at 10 µM (CLK1; read-out: dTm 8): 0.6 °C
ΔTm at 10 µM (Erk2; read-out: dTm 8): 0.1 °C
ΔTm at 10 µM (TTK; read-out: dTm 8): 0.5 °C
ΔTm at 10 µM (AAK1; read-out: dTm 8): 0.8 °C
ΔTm at 10 µM (NQO2A; read-out: dTm 8): 0.5 °C
ΔTm at 10 µM (CK1d; read-out: dTm 8): 0 °C
ΔTm at 10 µM (CASK; read-out: dTm 8): -0.2 °C
ΔTm at 10 µM (AurA; read-out: dTm 8): 1.9 °C

Compound: CNc1ncc2cc(-c3cc(Br)ccc3Br)c(=O)n(CCCCN)c2n1 [compound 11, 8-(4-Aminobutyl)-6-(2,5-dibromophenyl)-2-(methylamino)pyrido[2,3-d]pyrimidin-7(8H)-one]
ΔTm at 10 µM (CLK1; read-out: dTm 11): 0.4 °C
ΔTm at 10 µM (Erk2; read-out: dTm 11): 0.1 °C
ΔTm at 10 µM (TTK; read-out: dTm 11): 0.2 °C
ΔTm at 10 µM (AAK1; read-out: dTm 11): 0.4 °C
ΔTm at 10 µM (NQO2A; read-out: dTm 11): 0.3 °C
ΔTm at 10 µM (CK1d; read-out: dTm 11): 0 °C
ΔTm at 10 µM (CASK; read-out: dTm 11): -0.3 °C
ΔTm at 10 µM (AurA; read-out: dTm 11): 1.9 °C
